Assay results: PMC9230201, “Sustained Consumption of a Decaffeinated Green Coffee Nutraceutical Has Limited Effects on Phenolic Metabolism and Bioavailability in Overweight/Obese Subjects” (Nutrients, 2022)

Assays:
[1] = Plasma pharmacokinetics of phenolic metabolites after intake of the GCPE nutraceutical (LC-MS-QToF); conditions: for Cmax: mean ± SEM, n = 9
Method: Participants attended the Human Nutrition Unit (HNU) at the Institute of Food Science, Technology and Nutrition (ICTAN-CSIC) on two consecutive days at the beginning of the intervention (week 0) and also on two consecutive days at the end of the study, after consuming daily two doses of the GCPE nutraceutical, providing 600 mg/d phenols, during two months (week 8). On each occasion, on the first visit day (Figure 1), subjects arrived at the HNU after an overnight (12 h) fast and provided a urine sample. A licensed health care professional placed an intravenous catheter in the subjects′ nondominant arm and collected a fasting blood sample (baseline, 0 h). Then, subjects drank the soluble GCPE nutraceutical dissolved in 200 mL of water. Subsequently, blood samples were collected in EDTA-coated tubes at 0.5, 1, 1.5, 2, 3, 4, 6, 8, 10, and 11 h. On the sampling days, volunteers remained at the HNU, where a (poly)phenol-free diet was provided. Half an hour after consuming the nutraceutical, volunteers ate a breakfast consisting of ham, cheese, white bread, and a yogurt. Lunch (paella, bread, and yogurt) and an afternoon snack (muffin and yogurt) were eaten 5 and 9 h, respectively, after consuming the nutraceutical. Water and isotonic beverages were freely available. Volunteers were instructed to eat a (poly)phenol-free dinner that night and to attend the HNU on the next day after a 12 h fast. Then, a final blood sample was obtained from the antecubital vein 24 h after consuming the nutraceutical. The same protocol was followed during visits at the end of the 8-week intervention. On each occasion, two days before each visit to the HNU, subjects consumed a low (poly)phenol diet free of foods containing hydroxycinnamates such as coffee, herbal teas, red wine, artichokes, whole grain cereals, vegetables, fruits and fruit juices, and dried fruits. Only banana, watermelon, cantaloupes, and potatoes were allowed.
(§1) Blood samples were immediately centrifuged (10 min, 3000 rpm, 4 °C) to obtain plasma. […] All biological samples were stored at −80 °C until analysis.
To extract plasma metabolites, 10 µL of 50% (v/v) aqueous formic acid, and 900 µL cold acetonitrile containing 50 µL of 10% (w/v) ascorbic acid were added to 400 µL defrosted plasma. Samples were vortexed and centrifuged (14,000 rpm, 10 min, 4 °C), repeating the extraction and combining the two supernatants, which were reduced to dryness under nitrogen [13]. Dried samples were resuspended in 150 µL of 0.1% aqueous formic acid (containing 10% acetonitrile acidified with 0.1% formic acid), centrifuged (15 min, 14,000 rpm, 4 °C), and the supernatant collected.
A reverse-phase Ascentis Express C18 (15 cm × 3 mm, 2.7 µm) column (Sigma-Aldrich Quimica, Madrid, Spain), preceded by a Supelco 55215-U guard column (3 mm × 5 mm, 2.7 µm), was used for separation. Mobile phase A was 0.1% formic acid in Milli-Q water, and mobile phase B was acetonitrile containing 0.1% formic acid at a 0.3 mL/min flow rate. […] Metabolites were identified based on their retention time using authentic standards when possible.

[2] = Urinary excretion of phenolic metabolites after intake of the GCPE nutraceutical; conditions: for Cumulative urinary excretion, Total 0–24 h: urine, mean ± SEM, n = 9
Method: Participants attended the Human Nutrition Unit (HNU) at the Institute of Food Science, Technology and Nutrition (ICTAN-CSIC) on two consecutive days at the beginning of the intervention (week 0) and also on two consecutive days at the end of the study, after consuming daily two doses of the GCPE nutraceutical, providing 600 mg/d phenols, during two months (week 8). […] A licensed health care professional placed an intravenous catheter in the subjects′ nondominant arm and collected a fasting blood sample (baseline, 0 h). Then, subjects drank the soluble GCPE nutraceutical dissolved in 200 mL of water. […] On the sampling days, volunteers remained at the HNU, where a (poly)phenol-free diet was provided. Half an hour after consuming the nutraceutical, volunteers ate a breakfast consisting of ham, cheese, white bread, and a yogurt. Lunch (paella, bread, and yogurt) and an afternoon snack (muffin and yogurt) were eaten 5 and 9 h, respectively, after consuming the nutraceutical. Water and isotonic beverages were freely available. […] The same protocol was followed during visits at the end of the 8-week intervention. On each occasion, two days before each visit to the HNU, subjects consumed a low (poly)phenol diet free of foods containing hydroxycinnamates such as coffee, herbal teas, red wine, artichokes, whole grain cereals, vegetables, fruits and fruit juices, and dried fruits. Only banana, watermelon, cantaloupes, and potatoes were allowed.
as §1
To extract plasma metabolites, 10 µL of 50% (v/v) aqueous formic acid, and 900 µL cold acetonitrile containing 50 µL of 10% (w/v) ascorbic acid were added to 400 µL defrosted plasma. Samples were vortexed and centrifuged (14,000 rpm, 10 min, 4 °C), repeating the extraction and combining the two supernatants, which were reduced to dryness under nitrogen [13]. Dried samples were resuspended in 150 µL of 0.1% aqueous formic acid (containing 10% acetonitrile acidified with 0.1% formic acid), centrifuged (15 min, 14,000 rpm, 4 °C), and the supernatant collected. Urine samples were diluted 1:1 with Milli-Q water and centrifuged (14,000 rpm, 20 min, 4 °C) prior to analysis. Phosphate-buffered saline (3 mL) was added to a representative 300 mg sample of thawed feces, homogenized in an ultrasound bath during 10 min, centrifuged (14,000 rpm, 20 min, 4 °C), and the supernatants collected.
Mobile phase A was 0.1% formic acid in Milli-Q water, and mobile phase B was acetonitrile containing 0.1% formic acid at a 0.3 mL/min flow rate. […] Metabolites were identified based on their retention time using authentic standards when possible. […] Urine concentration of excreted metabolites was normalized to the total volume excreted in each studied interval.
Plasma (30 µL), urine (5 µL) and fecal extracts (5 µL) were filtered through 0.45 µm
cellulose-acetate membrane filters and injected into an Agilent 1200 series LC system
ESI-Jet Stream Technology (Agilent Technologies). A reverse-phase Ascentis Express
C18 (15 cm x 3 mm, 2.7 µm) column (Sigma-Aldrich Quimica, Madrid), preceded by a
phase A was 0.1% formic acid in Milli-Q water, and mobile phase B was acetonitrile
containing 0.1% formic acid at a 0.3 mL/min flow rate. The gradient started with 10% B
at 0 min, 30% B at 10 min, 40% B at 15 min, reaching 50% B at 20 min. The starting
gradient was then re-established in 2 min and maintained for 8 min to re-equilibrate the

[3] = week 0, GCPE nutraceutical with 300 mg hydroxycinnamic acids
[4] = week 0, first peak where biphasic
[5] = week 8, GCPE nutraceutical with 300 mg hydroxycinnamic acids
[6] = week 8, first peak where biphasic

| SMILES | AUC0–24h ([1]; week 0) [µM/min] | Cmax [1, 3] [nM] | Tmax (h) or Range [1, 4] [h] | AUC0–24h ([1]; week 8) [µM/min] | Cmax [1, 5] [nM] | Cumulative urinary excretion, Total 0–24 h ([2]; week 0) [µmol] | Cumulative urinary excretion, Total 0–24 h ([2]; week 8) [µmol] | Amount excreted in urine, 0- 3 h ([2]; week 0, interval 0–3 h) [µmol] | Amount excreted in urine, 3-6 h ([2]; week 0, interval 3–6 h) [µmol] | Amount excreted in urine, 6-9 h ([2]; week 0, interval 6–9 h) [µmol] | Amount excreted in urine, 9-11 h ([2]; week 0, interval 9–11 h) [µmol] | Amount excreted in urine, 11-24 h ([2]; week 0, interval 11–24 h) [µmol] | Amount excreted in urine, 0- 3 h ([2]; week 8, interval 0–3 h) [µmol] | Amount excreted in urine, 3-6 h ([2]; week 8, interval 3–6 h) [µmol] | Amount excreted in urine, 6-9 h ([2]; week 8, interval 6–9 h) [µmol] | Amount excreted in urine, 9-11 h ([2]; week 8, interval 9–11 h) [µmol] | Amount excreted in urine, 11-24 h ([2]; week 8, interval 11–24 h) [µmol] | also measured |
| --- | --- | --- | --- | --- | --- | --- | --- | --- | --- | --- | --- | --- | --- | --- | --- | --- | --- | --- |
| O=C(O)/C=C/c1ccc(OS(=O)(=O)O)cc1 [CoA-4′-sulfate, Cinnamic acid-4′-sulfate] | 0.2 ± 0.2 | 20 ± 20 | 1.7 ± 0.9 | 0.4 ± 0.2 | 30 ± 10 |  |  |  |  |  |  |  |  |  |  |  |  | Tmax, second peak ([1]; week 0, biphasic profile): 6 ± 3 h; Tmax, second peak ([1]; week 8, biphasic profile): 11 ± 3 h |
| O=C(O)CNC(=O)c1cccc(O)c1 [3′-Hydroxyhippuric acid] | 10 ± 3 | 1100 ± 300 | 10.0 ± 0.4 | 13 ± 3 | 1300 ± 200 | 32 ± 5 | 46 ± 8 | 3 ± 2 | 1.1 ± 0.2 | 4 ± 1 | 5 ± 1 | 11 ± 2 | 4 ± 1 | 2.6 ± 0.7 | 6 ± 2 | 5 ± 1 | 9 ± 2 | Tmax (h) or Range [1, 6]: 9.2 ± 0.5 h; Cumulative urinary excretion, Total 0–24 h ([2]; week 0, listed as 3′-hydroxyhippuric acid): 32 µmol; Cumulative urinary excretion, Total 0–24 h ([2]; week 8, listed as 3′-hydroxyhippuric acid): 46 µmol; Amount excreted in urine, TOTAL ([2]; week 0, Table S5 total): 32 ± 5 µmol; Amount excreted in urine, 0 h ([2]; week 8, 0 h (before intake on sampling day)): 18 ± 5 µmol; Amount excreted in urine, TOTAL ([2]; week 8, Table S6 total): 46 ± 8 µmol |
| O=C(O)C=Cc1ccc(OC2OC(C(=O)O)C(O)C(O)C2O)cc1 (stereo not shown) [CoA-4′-glucuronide, Cinnamic acid-4′-glucuronide] | 0.72 ± 0.08 | 39 ± 2 | 1.4 ± 0.3 | 0.71 ± 0.07 | 38 ± 2 |  |  |  |  |  |  |  |  |  |  |  |  | Tmax, second peak ([1]; week 0, biphasic profile): 7.0 ± 0.9 h; Tmax, second peak ([1]; week 8, biphasic profile): 9 ± 2 h; Tmax (h) or Range [1, 6]: 2.1 ± 0.2 h |
| COc1ccc(C=CC(=O)O)cc1O[C@@H]1O[C@H](C(=O)O)[C@@H](O)[C@H](O)[C@H]1O [iFA-3′-glucuronide, 4′-Methoxycinnamic acid-3′-glucuronide] |  |  |  |  |  | 4.4 ± 0.5 | 6 ± 1 | 0.9 ± 0.2 | 0.8 ± 0.2 | 1.1 ± 0.3 | 0.49 ± 0.09 | 1.1 ± 0.2 | 1.4 ± 0.3 | 0.9 ± 0.2 | 1.7 ± 0.3 | 1 ± 0.4 | 1.1 ± 0.3 |  |
| O=C(CCc1ccc(O)c(O)c1)OC1C(O)CC(O)(C(=O)O)CC1O (stereo not shown) [4-Dihydrocaffeoylquinic acid] |  |  |  |  |  | 0.06 ± 0.02 | 0.04 ± 0.02 | 0.011 ± 0.004 | 0.005 ± 0.002 | 0.005 ± 0.002 | 0.006 ± 0.002 | 0.036 ± 0.008 | 0.008 ± 0.004 | 0.003 ± 0.002 | 0.004 ± 0.002 | 0.004 ± 0.003 | 0.02 ± 0.01 |  |
| COc1cc(CCC(=O)OC2CC(O)(C(=O)O)CC(O)C2O)ccc1O (stereo not shown) [5-Dihydroferuloylquinic acid] |  |  |  |  |  | 0.3 ± 0.1 | 0.18 ± 0.07 | 0.12 ± 0.08 | 0.023 ± 0.004 | 0.027 ± 0.009 | 0.013 ± 0.004 | 0.1 ± 0.04 | 0.08 ± 0.04 | 0.021 ± 0.008 | 0.03 ± 0.02 | 0.008 ± 0.003 | 0.04 ± 0.02 |  |
| COc1cc(CCC(=O)OC2C(O)CC(O)(C(=O)O)CC2O)ccc1O (stereo not shown) [4-Dihydroferuloylquinic acid] |  |  |  |  |  | 0.06 ± 0.02 | 0.05 ± 0.02 | 0.011 ± 0.004 | 0.008 ± 0.003 | 0.013 ± 0.005 | 0.005 ± 0.003 | 0.019 ± 0.009 | 0.015 ± 0.008 |  | 0.011 ± 0.007 | 0.003 ± 0.002 | 0.009 ± 0.005 |  |
| O=C(/C=C/c1ccc(O)c(O)c1)O[C@@H]1C[C@](O)(C(=O)O)C[C@@H](O)[C@H]1O [3-Caffeoylquinic acid] |  |  |  |  |  | 0.21 ± 0.05 | 0.18 ± 0.03 | 0.11 ± 0.02 | 0.08 ± 0.03 | 0.022 ± 0.009 | 0.003 ± 0.002 |  | 0.1 ± 0.02 | 0.045 ± 0.008 | 0.028 ± 0.007 | 0.008 ± 0.005 |  |  |
| O=C(/C=C/c1ccc(O)c(O)c1)O[C@@H]1C[C@@](O)(C(=O)O)C[C@@H](O)[C@@H]1O [5-Caffeoylquinic acid] |  |  |  |  |  | 0.33 ± 0.06 | 0.33 ± 0.04 | 0.18 ± 0.04 | 0.12 ± 0.04 | 0.03 ± 0.01 | 0.004 ± 0.002 |  | 0.18 ± 0.04 | 0.08 ± 0.01 | 0.033 ± 0.008 | 0.009 ± 0.007 | 0.006 ± 0.006 |  |
| O=C(O)/C=C/c1ccc(O)c(OS(=O)(=O)O)c1 [CA-3′-sulfate, 4′Hydroxycinnamic acid-3′-sulfate] |  |  |  |  |  | 3.7 ± 0.5 | 4.4 ± 0.8 | 1.2 ± 0.3 | 0.7 ± 0.2 | 0.8 ± 0.2 | 0.21 ± 0.06 | 0.9 ± 0.2 | 1.2 ± 0.2 | 0.6 ± 0.1 | 0.9 ± 0.3 | 0.7 ± 0.3 | 1 ± 0.3 |  |
| O=C(O)CCc1ccc(O[C@@H]2O[C@H](C(=O)O)[C@@H](O)[C@H](O)[C@H]2O)cc1 [DHCoA-4′-glucuronide, 3-(Phenyl)propanoic acid-4′-glucuronide] |  |  |  |  |  | 2.1 ± 0.3 | 1.9 ± 0.3 | 0.17 ± 0.06 | 0.1 ± 0.03 | 0.26 ± 0.09 | 0.28 ± 0.07 | 1.3 ± 0.2 | 0.23 ± 0.09 | 0.16 ± 0.05 | 0.56 ± 0.2 | 0.4 ± 0.1 | 1 ± 0.1 |  |
| O=C(O)Cc1ccc(O)cc1 [4′-Hydroxyphenylacetic acid] | 2 ± 1 | 2000 ± 1000 | 2 ± 2 | 36 ± 23 | 7000 ± 3000 |  |  |  |  |  |  |  |  |  |  |  |  | Tmax (h) or Range [1, 6]: 0.6 ± 0.1 h |
